Patent publication US20220024891A1 (The Board of Regents of the University of Texas System, priority 2018, published 2022)

melting point | Structure (SMILES)
144 to 147 °C | CC1CCN(C2CCN(S(=O)(=O)c3cccnc3)CC2)CC1 [compound 71, 4-Methyl-1′-(pyridin-3-ylsulfonyl)-1,4′-bipiperidine]
122 to 124 °C | CC1CCN(C2CCN(S(=O)(=O)c3cccnc3Cl)CC2)CC1 [compound 72, 1′-((2-Chloropyridin-3-yl)sulfonyl)-4-methyl-1,4′-bipiperidine]
120 to 123 °C | CC1CCN(C2CCN(S(=O)(=O)c3cccnc3F)CC2)CC1 [compound 73, 1′-((2-Fluoropyridin-3-yl)sulfonyl)-4-methyl-1,4′-bipiperidine]
178 to 182 °C | CC1CCN(C2CCN(S(=O)(=O)c3ccc(Cl)nc3)CC2)CC1 [compound 74, 1′-((6-Chloropyridin-3-yl)sulfonyl)-4-methyl-1,4′-bipiperidine]
171 to 173 °C | CC1CCN(C2CCN(S(=O)(=O)c3cncc(Br)c3)CC2)CC1 [compound 75, 1′-((5-Bromopyridin-3-yl)sulfonyl)-4-methyl-1,4′-bipiperidine]
212 to 215 °C | CC1CCN(C2CCN(S(=O)(=O)c3cn(C)c(=O)n(C)c3=O)CC2)CC1 [compound 76, 1,3-Dimethyl-5-((4-methyl-[1,4′-bipiperidin]-1′-yl)sulfonyl)pyrimidine-2,4(1H,3H)-dione]
153 to 156 °C | CC1CCN(C2CCN(S(=O)(=O)c3nccn3C)CC2)CC1 [compound 77, 4-Methyl-1′-((1-methyl-1H-imidazol-2-yl)sulfonyl)-1,4′-bipiperidine]
139 to 142 °C | CC1CCN(C2CCN(S(=O)(=O)c3cn(C)cn3)CC2)CC1 [compound 78, 4-Methyl-1′-((1-methyl-1H-imidazol-4-yl)sulfonyl)-1,4′-bipiperidine]
158 to 161 °C | Cc1noc(C)c1S(=O)(=O)N1CCC(N2CCC(C)CC2)CC1 [compound 79, 3,5-Dimethyl-4-((4-methyl-[1,4′-bipiperidin]-1′-yl)sulfonyl)isoxazole]
141 to 143 °C | CC1CCN(C2CCN(S(=O)(=O)c3cnc(Cl)s3)CC2)CC1 [compound 80, 2-Chloro-5-((4-methyl-[1,4′-bipiperidin]-1′-yl)sulfonyl)thiazole]
117 to 119 °C | Cc1nc(Cl)sc1S(=O)(=O)N1CCC(N2CCC(C)CC2)CC1 [compound 81, 2-Chloro-4-methyl-5-((4-methyl-[1,4′-bipiperidin]-1′-yl)sulfonyl)thiazole]
139 to 141 °C | CC1CCN(C2CCN(S(=O)(=O)c3sc(Cl)nc3C3CC3)CC2)CC1 [compound 82, 2-Chloro-4-cyclopropyl-5-((4-methyl-[1,4′-bipiperidin]-1′-yl)sulfonyl)thiazole]
128 to 132 °C | CC1CCN(C2CCN(S(=O)(=O)c3cc(Br)cc4c3OCC4)CC2)CC1 [compound 86, 1′-((5-Bromo-2,3-dihydrobenzofuran-7-yl)sulfonyl)-4-methyl-1,4′-bipiperidine]
129 to 132 °C | CC1CCN(C2CCN(S(=O)(=O)c3ccc(Cl)c4ccccc34)CC2)CC1 [compound 88, 1′-((4-Chloronaphthalen-1-yl)sulfonyl)-4-methyl-1,4′-bipiperidine]
123 to 126 °C | CC1CCN(C2CCN(S(=O)(=O)c3cccc4cnccc34)CC2)CC1 [compound 90, 5-((4-Methyl-[1,4′-bipiperidin]-1′-yl)sulfonyl)isoquinoline]
88 to 91 °C | CC1CCCN(C2CCN(S(=O)(=O)c3ccc(OC(F)F)cc3)CC2)C1 (stereo not drawn) [compound 91, 1′-((4-(Difluoromethoxy)phenyl)sulfonyl)-3-methyl-1,4′-bipiperidine]
161 to 164 °C | C#CCC1CCN(C2CCN(S(=O)(=O)c3ccc(Br)cc3)CC2)CC1 [compound 92, 1′-((4-Bromophenyl)sulfonyl)-4-(prop-2-yn-1-yl)-1,4′-bipiperidine]

melting point | Structure (SMILES)
82 to 85 °C | Cc1cc(C)c(S(=O)(=O)N2CCC(N3CCC(CCO)CC3)CC2)c(C)c1 [compound 100, 2-(1′-(Mesitylsulfonyl)-[1,4′-bipiperidin]-4-yl)ethanol]
120 to 123 °C | Cc1cc(C)c(S(=O)(=O)N2CCC(N3CCC(O)CC3)CC2)c(C)c1 [compound 101, 1′-(Mesitylsulfonyl)-[1,4′-bipiperidin]-4-ol]
141 to 144 °C | Cc1cc(C)c(S(=O)(=O)N2CCC(N3CCC(c4ccccc4)CC3)CC2)c(C)c1 [compound 111, 1′-(Mesitylsulfonyl)-4-phenyl-1,4′-bipiperidine]
122 to 124 °C | Cc1cc(C)c(S(=O)(=O)N2CCC(C(=O)N3CCC(C)CC3)CC2)c(C)c1 [compound 113, (1-(Mesitylsulfonyl)piperidin-4-yl 4-methylpiperidin-1-yl)methanone]
148 to 151 °C | Cc1ccc(NC2CCN(S(=O)(=O)c3c(C)cc(C)cc3C)CC2)cc1 [compound 114, 1-(Mesitylsulfonyl)-N-(p-tolyl)piperidin-4-amine]
87 to 90 °C | Cc1ccc(C2CCN(S(=O)(=O)c3c(C)cc(C)cc3C)CC2)cc1 [compound 115, 1-(Mesitylsulfonyl)-4-(p-tolyl)piperidine]
88 to 90 °C | Cc1cc(C)c(S(=O)(=O)N2CCC(c3ccccc3)CC2)c(C)c1 [compound 116, 1-(Mesitylsulfonyl)-4-phenylpiperidine]
144 to 147 °C | CCCC(=O)NC1CCN(S(=O)(=O)c2c(C)cc(C)cc2C)CC1 [compound 118, N-(1-(Mesitylsulfonyl)piperidin-4-yl)butyramide]
72 to 75 °C | CC1CCN(C2CCN(C(=O)c3ccc(OC(F)(F)F)cc3)CC2)CC1 [compound 119, (4-Methyl-[1,4′-bipiperidin]-1′-yl)(4-(trifluoromethoxy)phenyl)methanone]
103 to 105 °C | Cc1cc(C)c(S(=O)(=O)c2ccc(N3CCC(C)CC3)cc2)c(C)c1 [compound 125, 1-(4-(Mesitylsulfonyl)phenyl)-4-methylpiperidine]
> 300 °C | Cc1cc(C)c(S(=O)(=O)N2CCN(C3CN4CCC3CC4)CC2)c(C)c1 (stereo not drawn) [compound 127, 3-(4-(Mesitylsulfonyl)piperazin-1-yl)quinuclidine]
182 to 184 °C | Cc1cc(C)c(S(=O)(=O)N2CCN(C34CC5CC(CC(C5)C3)C4)CC2)c(C)c1 [compound 128, 1-(Adamantan-1-yl)-4-(mesitylsulfonyl)piperazine]
88 to 92 °C | Cc1cc(C)c(S(=O)(=O)N2CCC(NC3CCCC3)CC2)c(C)c1 [compound 132, N-cyclopentyl-1-(mesitylsulfonyl)piperidin-4-amine]
85 to 88 °C | Cc1cc(C)c(S(=O)(=O)N2CCC(CO)CC2)c(C)c1 [compound 137, (1-(mesitylsulfonyl)piperidin-4-yl)methanol]
71 to 74 °C | Cc1cc(C)c(S(=O)(=O)N2CCC(C=O)CC2)c(C)c1 [compound 138, 1-(mesitylsulfonyl)piperidine-4-carbaldehyde]
137 to 139 °C | CC1CCN(CC2CCN(S(=O)(=O)c3ccc4ncsc4c3)CC2)CC1 [compound 148, 6-((4-((4-methylpiperidin-1-yl)methyl)piperidin-1-yl)sulfonyl)benzo[d]thiazole]
